Assay results reported in US20230021483A1, “[…] […] METHOD AND CLASSIFICATION OF PHARMACEUTICAL COMPONENTS BY USING TRANSCRIPTOMES” (National Institutes of Biomedical Innovation, Health and …, priority 2016, published 2023).

Tested on: adjuvant-associated biological themes in LV, SP, LN
Details: LV, ID
Outline: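 Enrichment score S sums −log(p) over consensus themes whose names contain a pre-selected adjuvant-associated term such as "stress" or "cytokine". Consensus requires a theme in all three mice of a group, p<0.05. Themes come from TargetMine analysis of genes with eij/ei(c)>2.0, Fisher's exact test, Holm-Bonferroni-corrected.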

Nc1nc2c(ncn2[C@@H]2O[C@@H]3COP(=O)(O)O[C@H]4[C@@H](O)[C@H](n5cnc6c(N)ncnc65)O[C@@H]4COP(=O)(O)O[C@@H]2[C@@H]3O)c(=O)[nH]1 [cGAMP, Cyclic [G(2′,5′)pA(3′,5′)p]]
GO annotation: Cytokine-cytokine receptor interaction (Term: cytokine): 5.57 | GO annotation: Cytokine-cytokine receptor interaction|Endocytosis (Term: cytokine): 24.6 | GO annotation: NF-kappa B signaling pathway (Term: NF-kappa B signaling pathway): 4.86 | GO annotation: TNF signaling pathway (Term: TNF signaling pathway): 27.6 | GO annotation: activation of immune response (Term: immune response): 12.6 | GO annotation: activation of innate immune response (Term: innate immune response): 16.9 | GO annotation: acute inflammatory response (Term: inflammatory response): 0 | GO annotation: adaptive immune response (Term: adaptive immune response): 0 | GO annotation: adaptive immune response based on somatic recombination of immune receptors built from immunoglobulin superfamily domains (Term: adaptive immune response): 3.78 | GO annotation: apoptotic process (Term: apoptosis): 4.46 | GO annotation: apoptotic signaling pathway (Term: apoptosis): 0 | GO annotation: cell chemotaxis (Term: chemotaxis): 4.4 | GO annotation: cell death (Term: cell death): 10.2 | GO annotation: cell migration (Term: migration): 0 | GO annotation: cellular response to cytokine stimulus (Term: cytokine): 32.9 | GO annotation: cellular response to interferon-alpha (Term: IFN alpha): 6.72 | GO annotation: cellular response to stress (Term: stress): 0 | GO annotation: chemokine production (Term: chemokine): 0 | GO annotation: chemokine-mediated signaling pathway (Term: chemokine): 0 | GO annotation: chemotaxis (Term: chemotaxis): 0 | GO annotation: cytokine biosynthetic process (Term: cytokine): 6.84 | GO annotation: cytokine metabolic process (Term: cytokine): 8.21 | GO annotation: cytokine production (Term: cytokine): 17.4 | GO annotation: cytokine secretion (Term: cytokine): 0 | GO annotation: cytokine-mediated signaling pathway (Term: cytokine): 16.4 | GO annotation: death (Term: cell death): 4.77 | GO annotation: defense response (Term: defense response): 62.7 | GO annotation: defense response to Gram-positive bacterium (Term: defense response): 0 | GO annotation: defense response to bacterium (Term: defense response): 8.38 | GO annotation: defense response to other organism (Term: defense response): 37 | GO annotation: defense response to protozoan (Term: defense response): 4.37 | GO annotation: defense response to virus (Term: defense response): 19.8 | GO annotation: granulocyte chemotaxis (Term: chemotaxis): 0 | GO annotation: granulocyte migration (Term: migration): 0 | GO annotation: immune response (Term: immune response): 42.2 | GO annotation: immune response-activating signal transduction (Term: immune response): 14.1 | GO annotation: immune response-regulating signaling pathway (Term: immune response): 17.6 | GO annotation: inflammatory response (Term: inflammatory response): 11.5 | GO annotation: innate immune response (Term: innate immune response): 31.4 | GO annotation: innate immune response-activating signal transduction (Term: innate immune response): 16.2 | GO annotation: interferon-alpha production (Term: IFN alpha): 3.79 | GO annotation: intrinsic apoptotic signaling pathway (Term: apoptosis): 0 | GO annotation: leukocyte chemotaxis (Term: chemotaxis): 0 | GO annotation: leukocyte migration (Term: migration): 0 | GO annotation: leukocyte migration involved in inflammatory response (Term: inflammatory response): 0 | GO annotation: lymphocyte chemotaxis (Term: chemotaxis): 0 | GO annotation: lymphocyte migration (Term: migration): 0 | GO annotation: myeloid leukocyte migration (Term: migration): 0 | GO annotation: negative regulation of apoptotic process (Term: apoptosis): 0 | GO annotation: negative regulation of cell death (Term: cell death): 0 | GO annotation: negative regulation of cytokine production (Term: cytokine): 3.21 | GO annotation: negative regulation of defense response (Term: defense response): 0 | GO annotation: negative regulation of immune response (Term: immune response): 0 | GO annotation: negative regulation of innate immune response (Term: innate immune response): 0 | GO annotation: negative regulation of programmed cell death (Term: cell death): 0 | GO annotation: neutrophil chemotaxis (Term: chemotaxis): 0 | GO annotation: neutrophil migration (Term: migration): 0 | GO annotation: positive regulation of adaptive immune response (Term: adaptive immune response): 0 | GO annotation: positive regulation of apoptotic process (Term: apoptosis): 0 | GO annotation: positive regulation of cell death (Term: cell death): 0 | GO annotation: positive regulation of cell migration (Term: migration): 0 | GO annotation: positive regulation of chemokine production (Term: chemokine): 0 | GO annotation: positive regulation of chemotaxis (Term: chemotaxis): 0 | GO annotation: positive regulation of cytokine biosynthetic process (Term: cytokine): 0 | GO annotation: positive regulation of cytokine production (Term: cytokine): 11.1 | GO annotation: positive regulation of defense response (Term: defense response): 24.7 | GO annotation: positive regulation of immune response (Term: immune response): 15.7 | GO annotation: positive regulation of inflammatory response (Term: inflammatory response): 0 | GO annotation: positive regulation of innate immune response (Term: innate immune response): 17.2 | GO annotation: positive regulation of interferon-alpha production (Term: IFN alpha): 4.81 | GO annotation: positive regulation of leukocyte chemotaxis (Term: chemotaxis): 0 | GO annotation: positive regulation of leukocyte migration (Term: migration): 0 | GO annotation: positive regulation of programmed cell death (Term: cell death): 0 | GO annotation: positive regulation of response to wounding (Term: wounding): 0 | GO annotation: positive regulation of tumor necrosis factor superfamily cytokine (Term: cytokine): 0 | GO annotation: production of molecular mediator of immune response (Term: immune response): 0 | GO annotation: programmed cell death (Term: cell death): 6.49 | GO annotation: regulation of adaptive immune response (Term: adaptive immune response): 0 | GO annotation: regulation of adaptive immune response based on somatic recombination of immune receptors built from immunoglobulin superfamily domains (Term: adaptive immune response): 0 | GO annotation: regulation of apoptotic process (Term: apoptosis): 4.63 | GO annotation: regulation of apoptotic signaling pathway (Term: apoptosis): 0 | GO annotation: regulation of cell death (Term: cell death): 3.82 | GO annotation: regulation of cell migration (Term: migration): 0 | GO annotation: regulation of chemokine production (Term: chemokine): 0 | GO annotation: regulation of chemotaxis (Term: chemotaxis): 0 | GO annotation: regulation of cytokine biosynthetic process (Term: cytokine): 0 | GO annotation: regulation of cytokine production (Term: cytokine): 19.1 | GO annotation: regulation of defense response (Term: defense response): 37.5 | GO annotation: regulation of defense response to virus (Term: defense response): 0 | GO annotation: regulation of defense response to virus by host (Term: defense response): 0 | GO annotation: regulation of immune response (Term: immune response): 20.7 | GO annotation: regulation of inflammatory response (Term: inflammatory response): 0 | GO annotation: regulation of innate immune response (Term: innate immune response): 24.8 | GO annotation: regulation of interferon-alpha production (Term: IFN alpha): 4.28 | GO annotation: regulation of intrinsic apoptotic signaling pathway (Term: apoptosis): 0 | GO annotation: regulation of leukocyte chemotaxis (Term: chemotaxis): 0 | GO annotation: regulation of leukocyte migration (Term: migration): 0 | GO annotation: regulation of programmed cell death (Term: cell death): 4.93 | GO annotation: regulation of response to stress (Term: stress): 25.3 | GO annotation: regulation of response to wounding (Term: wounding): 3.31 | GO annotation: regulation of tumor necrosis factor superfamily cytokine production (Term: cytokine): 0 | GO annotation: response to cytokine (Term: cytokine): 45.9 | GO annotation: response to interferon-alpha (Term: IFN alpha): 14.8 | GO annotation: response to stress (Term: stress): 44.6 | GO annotation: response to wounding (Term: wounding): 0 | GO annotation: taxis (Term: chemotaxis): 0 | GO annotation: tumor necrosis factor superfamily cytokine production (Term: cytokine): 0 | IFN beta: cellular response to interferon-beta: 17.6 | IFN beta: interferon-beta production: 5.22 | IFN beta: positive regulation of interferon-beta production: 9.2 | IFN beta: regulation of interferon-beta production: 5.76 | IFN beta: response to interferon-beta: 23.5 | IFN gamma: cellular response to interferon-gamma: 7.44 | IFN gamma: interferon-gamma production: 0 | IFN gamma: regulation of interferon-gamma production: 0 | IFN gamma: response to interferon-gamma: 10 | interleukin-6: interleukin-6 production: 0 | interleukin-6: positive regulation of interleukin-6 production: 0 | interleukin-6: regulation of interleukin-6 production: 0 | interleukin-12: interleukin-12 production: 0 | interleukin-12: positive regulation of interleukin-12 production: 0 | interleukin-12: regulation of interleukin-12 production: 0
